From ChEMBL document CHEMBL1201862, “PubChem BioAssay data set” (2004)
Values belong to the molecule of their own block, whether it stands above or below them. Calls of active or inactive are those of the source.

Experiments:
[1] = biological target: Serine/threonine-protein phosphatase (Candida dubliniensis (strain CD36 / CBS 7987 / NCPF 3949 / NRRLY-17841) (Yeast), UniProt B9W6M3); assay: blockers of CaCl2-induced CDRE-lacZ signaling – S. cerevisiae, luminescence, secondary, dose response (AID 2388); assay type: functional, cell-based;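 note: yeast reporter cells carrying a calcineurin-responsive lacZ construct stimulated with calcium chloride; luminescent beta-galactosidase reporter signal in whole cells rather than isolated phosphatase activity; potency for inhibition where a drop in reporter signal means calcineurin blockade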
[2] = biological target: T1, Ubiquitin-conjugating enzyme E2 N (Homo sapiens, UniProt P61088); assay type: functional
T1 sequence (P61088 whole entry): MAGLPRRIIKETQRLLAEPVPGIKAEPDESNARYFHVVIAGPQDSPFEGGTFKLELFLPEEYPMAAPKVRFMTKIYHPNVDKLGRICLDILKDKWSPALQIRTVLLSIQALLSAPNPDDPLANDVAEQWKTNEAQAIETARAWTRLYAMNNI

Bcl-2-related protein A1 = biological target: T2, Bcl-2-related protein A1 (Mus musculus, UniProt Q07440); assay type: functional;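 note: confirmatory dose–response counterscreen on Bfl-1, used to check hits from a UBC13 polyubiquitin inhibitor campaign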
T2 sequence (Q07440 whole entry): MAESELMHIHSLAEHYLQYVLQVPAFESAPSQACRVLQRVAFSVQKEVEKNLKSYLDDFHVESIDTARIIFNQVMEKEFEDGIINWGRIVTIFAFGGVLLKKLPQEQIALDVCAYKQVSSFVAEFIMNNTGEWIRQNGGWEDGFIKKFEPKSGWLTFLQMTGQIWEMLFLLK

[3] = biological target: T1, Ubiquitin-conjugating enzyme E2 N; assay type: functional; remark: listed apart in the source
[4] = biological target: ATP-dependent molecular chaperone HSP82 (Candida albicans (strain WO-1) (Yeast), UniProt C4YTQ8); assay: steroid-induced GRE reporter decrease in yeast – S. cerevisiae, luminescence, Hsp90 inhibitor project, dose response (AID 2400); assay type: functional, cell-based;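 note: beta-galactosidase luminescence from glucocorticoid response element reporter as proxy for Hsp90 function; inhibitor potency where signal loss means Hsp90 inhibition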
Candida albicans [5] = assay: resistant Candida growth with fluconazole co-treatment – CaCi-8 strain, Alamar Blue, dry powder, set 3, dose response (AID 488905); assay type: functional, organism-based
Candida albicans [6] = assay: Candida growth inhibition combined with fluconazole – CaCi-2 strain, Alamar Blue, dry powder, set 3, dose response (AID 488907); assay type: functional, organism-based
[7] = biological target: Cyclin-dependent kinase 2 (Homo sapiens, UniProt P24941); assay: inhibition of human CDK2/cyclin A – biochemical, cherry-picked samples, selectivity assay for Dyrk1A inhibitor project, dose response (AID 602127)
[8] = biological target: Dual specificity protein kinase CLK1 (Homo sapiens, UniProt P49759); assay: inhibition of human CLK1 activity – biochemical, cherry-picked samples, selectivity assay for Dyrk1A inhibitor project, dose response (AID 588811)
Chain of Dual specificity protein kinase CLK1 (P49759 whole entry): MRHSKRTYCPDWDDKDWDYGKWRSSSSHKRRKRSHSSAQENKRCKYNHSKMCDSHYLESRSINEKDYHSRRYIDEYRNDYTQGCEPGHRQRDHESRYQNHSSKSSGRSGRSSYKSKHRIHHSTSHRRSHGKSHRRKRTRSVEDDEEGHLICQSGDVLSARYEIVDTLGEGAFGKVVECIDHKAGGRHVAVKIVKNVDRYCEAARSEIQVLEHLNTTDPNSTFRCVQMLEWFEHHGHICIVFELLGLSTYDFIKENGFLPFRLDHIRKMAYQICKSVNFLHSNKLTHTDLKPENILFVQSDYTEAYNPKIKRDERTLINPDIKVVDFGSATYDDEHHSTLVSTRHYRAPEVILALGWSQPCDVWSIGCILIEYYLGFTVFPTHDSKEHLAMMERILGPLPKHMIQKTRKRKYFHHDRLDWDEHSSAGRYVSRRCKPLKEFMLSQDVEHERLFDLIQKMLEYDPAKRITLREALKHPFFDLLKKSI

Chain of ATP-dependent molecular chaperone HSP82 (C4YTQ8 whole entry): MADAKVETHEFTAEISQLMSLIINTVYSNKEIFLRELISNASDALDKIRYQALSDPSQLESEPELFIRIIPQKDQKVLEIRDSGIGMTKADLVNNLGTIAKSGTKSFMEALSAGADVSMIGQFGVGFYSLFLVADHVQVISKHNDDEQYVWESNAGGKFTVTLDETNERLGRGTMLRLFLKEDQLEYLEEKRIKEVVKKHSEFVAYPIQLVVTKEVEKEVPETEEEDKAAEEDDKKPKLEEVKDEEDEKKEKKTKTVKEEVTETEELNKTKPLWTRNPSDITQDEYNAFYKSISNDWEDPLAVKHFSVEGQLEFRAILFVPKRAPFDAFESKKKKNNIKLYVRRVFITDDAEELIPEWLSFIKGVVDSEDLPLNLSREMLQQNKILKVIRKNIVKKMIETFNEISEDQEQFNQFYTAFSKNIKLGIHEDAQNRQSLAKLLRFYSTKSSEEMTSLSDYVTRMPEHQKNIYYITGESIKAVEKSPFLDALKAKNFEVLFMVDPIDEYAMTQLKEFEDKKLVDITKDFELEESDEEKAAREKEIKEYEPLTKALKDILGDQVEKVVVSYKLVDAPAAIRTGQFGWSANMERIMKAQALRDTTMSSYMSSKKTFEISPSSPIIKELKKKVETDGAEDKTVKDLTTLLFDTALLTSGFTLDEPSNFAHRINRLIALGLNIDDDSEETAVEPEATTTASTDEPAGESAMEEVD
Chain of Serine/threonine-protein phosphatase (B9W6M3 whole entry): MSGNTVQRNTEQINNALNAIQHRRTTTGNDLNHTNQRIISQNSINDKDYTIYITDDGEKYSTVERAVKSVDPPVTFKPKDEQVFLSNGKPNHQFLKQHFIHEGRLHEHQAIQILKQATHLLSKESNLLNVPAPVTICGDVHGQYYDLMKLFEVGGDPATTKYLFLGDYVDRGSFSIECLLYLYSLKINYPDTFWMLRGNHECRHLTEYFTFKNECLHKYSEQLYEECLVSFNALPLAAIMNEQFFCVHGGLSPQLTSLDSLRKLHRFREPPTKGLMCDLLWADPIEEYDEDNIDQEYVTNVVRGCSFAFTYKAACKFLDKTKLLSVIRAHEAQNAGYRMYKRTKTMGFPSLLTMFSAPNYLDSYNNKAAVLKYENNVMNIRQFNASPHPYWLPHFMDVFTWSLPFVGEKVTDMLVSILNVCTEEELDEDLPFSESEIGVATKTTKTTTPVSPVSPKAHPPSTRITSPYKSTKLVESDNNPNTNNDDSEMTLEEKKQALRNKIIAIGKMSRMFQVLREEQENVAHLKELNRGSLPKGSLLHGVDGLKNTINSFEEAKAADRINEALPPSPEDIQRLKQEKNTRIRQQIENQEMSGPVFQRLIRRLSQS

EC50 [1]: > 180 µM (inactive)
IC50 [2]: 9.98 µM (active)
IC50 (Bcl-2-related protein A1): > 20 µM (inactive)
IC50 [3]: > 20 µM (inactive)
EC50 [4]: 19.2 µM (active)
SMILES: Fc1cccc(-n2cc(-c3ccccc3)c3c(=S)[nH]cnc32)c1

SMILES: Cc1ccc(C(=O)N2CCN(c3ccccn3)CC2)cc1
AC50 (Candida albicans [5]): 10.4 µM (active)
AC50 (Candida albicans [6]): 0.0979 µM (active)

AC50 [7]: 3.52 µM (active)
AC50 [8]: 0.0402 µM (active)
SMILES: c1cncc(CNc2nccc(-c3ccc4[nH]ncc4c3)n2)c1
